US20240139333A1, “2,6-DICHLOROPHENYL ESTER COMPOUNDS AND USE THEREOF” (Fusion Pharmaceuticals Inc., priority 2021, published 2024)

Assays:
[1] = Comparative active ester reactivity study with HOPO nucleophile; details: 1,2-HOPO 1 eq., 22±2° C.
Description: (§1) General Experimental Protocol for Comparative Active Ester Reactivity Study with HOPO or HOA Nucleophiles
(§2) To a 4 mL scintillation vial containing Compound A-E (in respective experiments; 1 eq.) was added a stir bar followed by 150 μL of HPLC grade acetonitrile. In another 4 mL scintillation vial containing a respective nucleophile (1 eq.) was added 280 μL HPLC grade water. The solutions were combined and allowed to stir at room temperature (22±2° C.) for 4 hours. Timed aliquots at time (T)=15, 30, 60, 120 and 240 minutes were taken and analyzed by HPLC-MS using elution method 1 (Table 1).

[2] = Comparative active ester reactivity study with HOA nucleophile (benzhydroxamic acid); details: Benzhydroxamic Acid 1 eq., 22±2° C.
Description: as §1, §2

[3] = Comparative active ester reactivity study with HOA nucleophile (N-hydroxy-N-methylbenzamide); details: N-Hydroxy-N-methylbenzamide 1 eq., 22±2° C.
Description: as §1, §2

[4] = Nucleophilic reactivity study with L-Lysine; details: L-Lysine 5 equiv, 22±2° C.
Description: General Experimental Protocol for Nucleophilic Reactivity Study with L-Lysine
To a 4 mL scintillation vial containing Compound A-E (in respective experiments; 1 eq.) was added a stir bar followed by 70 μL of HPLC grade acetonitrile. In another 4 mL scintillation vial containing L-Lysine monohydrochloride (5 eq.) was added 130 μL HPLC grade water followed by diisopropylethylamine (5 eq.). The solutions were combined and allowed to stir at room temperature (22±2° C.). Timed aliquots at time (T)=15, 30, 60 and 120 minutes were taken and analyzed by HPLC-MS using elution method 1 (Table 2).

pH stability study = assay type: physicochemical; details: 20° C.
Description: To a 4 mL scintillation vial containing Compound A-E (in respective experiments; 0.8 mg) was added 4 mL of either a pH 3, pH 5 pH 7 or pH 9 buffer to create a 0.2 mg/mL solution. 2 mL of this solution was added to a 2 mL HPLC vial and placed in the auto sampler of an HPLC-MS at 20° C. Timed aliquots at time (T)=15, 30, 60, 120, 240 and 480 minutes were taken and analyzed by HPLC-MS using elution method 1 (Table 3). […]
pH 3 Buffer: Citric acid/Na2HPO4 (79.45 mL 0.1 M-citric acid and 20.55 mL 0.2-Na2HPO4) pH 5 Buffer: Citric acid/Na2HPO4 (48.50 mL 0.1 M-citric acid and 51.50 mL 0.2-Na2HPO4) pH 7 Buffer: Citric acid/Na2HPO4 (17.65 mL 0.1 M-citric acid and 82.35 mL 0.2-Na2HPO4) pH 9 Buffer: Sodium Carbonate/Sodium Bicarbonate (10 mL 0.1 M-Na2CO3 and 90 mL 0.1-NaHCO3)

[5] = Temperature stability study in H2O; assay type: physicochemical
Description: 20° C.: To a 4 mL scintillation vial containing Compound A-E (in respective experiments; 0.8 mg) was added 4 mL of HPLC grade water to create a 0.2 mg/mL solution. 2 mL of this solution was added to a 2 mL HPLC vial and placed in the auto sampler of an HPLC-MS at 20° C. Timed aliquots at time (T)=15, 30, 60, 120, 240 and 480 minutes were taken and analyzed by HPLC-MS using elution method 1 (Table 4).
50° C.: To a 4 mL scintillation vial containing Compound A-E (in respective experiments; 0.8 mg) was added a stir bar followed by 4 mL of HPLC grade water to create a 0.2 mg/mL solution. The vial was capped and allowed to stir in a 50° C. oil bath for 8 hours. Timed aliquots at time (T) =15, 30, 60, 120, 240 and 480 minutes were taken and analyzed by HPLC-MS using elution method 1 (Table 4).

DMSO stability study = assay type: physicochemical
Description: To a 4 mL scintillation vial containing Compound A-E (in respective experiments; 4 mg) was added a stir bar followed by 500 μL of anhydrous dimethyl sulfoxide and was allowed to stir at room temperature (22±2° C.) for 4 hours. Timed aliquots at time (T)=15, 30, 60, 120 and 240 minutes were taken, dissolved in water to achieve 2% DMSO composition and analyzed by HPLC-MS using elution method 1 (Table 5).

O=C(CCc1cccnc1)Oc1ccc([N+](=O)[O-])cc1 [Compound D, 4-Nitrophenyl-3-(pyridin-3-yl)propanoate]
% Active Ester Remaining ([1]; 15 min): 99.18%
% Active Ester Remaining ([1]; 30 min): 96.81%
% Active Ester Remaining ([1]; 60 min): 93.29%
% Active Ester Remaining ([1]; 120 min): 85.25%
% Active Ester Remaining ([1]; 240 min): 75.07%
% Active Ester Remaining ([2]; 15 min): 96.49%
% Active Ester Remaining ([2]; 30 min): 84.28%
% Active Ester Remaining ([2]; 60 min): 74.58%
% Active Ester Remaining ([2]; 120 min): 57.07%
% Active Ester Remaining ([2]; 240 min): 34.21%
% Active Ester Remaining ([3]; 15 min): 95.63%
% Active Ester Remaining ([3]; 30 min): 90.98%
% Active Ester Remaining ([3]; 60 min): 83.40%
% Active Ester Remaining ([3]; 120 min): 65.46%
% Active Ester Remaining ([3]; 240 min): 41.73%
% Active Ester Remaining ([4]; 15 min): 8.34%
% Active Ester Remaining ([4]; 30 min): 0%
% Remaining (pH stability study; pH 3 buffer, 15 min): 100%
% Remaining (pH stability study; pH 3 buffer, 30 min): 99.74%
% Remaining (pH stability study; pH 3 buffer, 60 min): 99.57%
% Remaining (pH stability study; pH 3 buffer, 120 min): 99.21%
% Remaining (pH stability study; pH 3 buffer, 240 min): 98.55%
% Remaining (pH stability study; pH 3 buffer, 480 min): 97.20%
% Remaining (pH stability study; pH 5 buffer, 15 min): 99.83%
% Remaining (pH stability study; pH 5 buffer, 30 min): 99.54%
% Remaining (pH stability study; pH 5 buffer, 60 min): 99.19%
% Remaining (pH stability study; pH 5 buffer, 120 min): 98.63%
% Remaining (pH stability study; pH 5 buffer, 240 min): 97.52%
% Remaining (pH stability study; pH 5 buffer, 480 min): 94.89%
% Remaining (pH stability study; pH 7 buffer, 15 min): 99.11%
% Remaining (pH stability study; pH 7 buffer, 30 min): 98.00%
% Remaining (pH stability study; pH 7 buffer, 60 min): 96.59%
% Remaining (pH stability study; pH 7 buffer, 120 min): 94.83%
% Remaining (pH stability study; pH 7 buffer, 240 min): 89.25%
% Remaining (pH stability study; pH 7 buffer, 480 min): 78.56%
% Remaining (pH stability study; pH 9 buffer, 15 min): 83.05%
% Remaining (pH stability study; pH 9 buffer, 30 min): 61.77%
% Remaining (pH stability study; pH 9 buffer, 60 min): 42.40%
% Remaining (pH stability study; pH 9 buffer, 120 min): 23.66%
% Remaining (pH stability study; pH 9 buffer, 240 min): 14.96%
% Remaining (pH stability study; pH 9 buffer, 480 min): 10.31%
% Remaining ([5]; 20° C., 15 min): 97.54%
% Remaining ([5]; 20° C., 30 min): 96.41%
% Remaining ([5]; 20° C., 60 min): 95.69%
% Remaining ([5]; 20° C., 120 min): 94.78%
% Remaining ([5]; 20° C., 240 min): 93.59%
% Remaining ([5]; 20° C., 480 min): 91.31%
% Remaining ([5]; 50° C., 15 min): 86.19%
% Remaining ([5]; 50° C., 30 min): 77.18%
% Remaining ([5]; 50° C., 60 min): 72.58%
% Remaining ([5]; 50° C., 120 min): 67.54%
% Remaining ([5]; 50° C., 240 min): 65.59%
% Remaining ([5]; 50° C., 480 min): 66.22%
% Active Ester Remaining in DMSO at 22 ± 2° C. (DMSO stability study; 15 min): 99.35%
% Active Ester Remaining in DMSO at 22 ± 2° C. (DMSO stability study; 30 min): 98.99%
% Active Ester Remaining in DMSO at 22 ± 2° C. (DMSO stability study; 60 min): 99.29%
% Active Ester Remaining in DMSO at 22 ± 2° C. (DMSO stability study; 120 min): 99.65%
% Active Ester Remaining in DMSO at 22 ± 2° C. (DMSO stability study; 240 min): 99.31%
